Reference: patent US8618082B2, “Lupeol anti-tumor agent and uses thereof” (Wisconsin Alumni Research Foundation, priority 2004, dated 2013)
Entries after “also recorded” stand apart in the source; their conditions may differ.

Tests used:
[1] = system: Akt; experiment: TPA-induced phosphorylation of Akt at Thr308 (western blot); format: in vivo, mouse
Method: FIG. 5. Inhibitory effect of Lupeol on TPA-induced activation of PI3K and phosphorylation of Akt in CD-1 mice: At different times after treatment, the animals were sacrificed, epidermal protein lysate was prepared, and PI3K and phosphorylated (Thr^308) Akt and total Akt protein expression were determined. The immunoblots shown here are representative of three independent experiments with similar results. The values above each lane indicate relative density of the band normalized to β-actin.
The animals were shaved on the dorsal side of the skin, divided into four groups and treated topically on the shaved area with either 0.4 ml vehicle (acetone), or TPA (3.2 nmol/0.4 ml acetone/animal, v/v), or Lupeol (1 or 2 mg/0.2 ml acetone/animal, w/v) followed 30 min later with TPA (3.2 nmol/0.2 ml acetone/animal). Animals were sacrificed at different times point i.e. 6, 12, 24 and 48 h post TPA treatment. […]
Epidermis from the whole skin was separated as described earlier (Katiyar et al., 1999) and was homogenized in ice-cold lysis buffer [50 mM Tris-HCl, 150 mM NaCl, 1 mM EGTA, 1 mM EDTA, 20 mM NaF, 100 mM Na3VO4, 0.5% NP-40, 1% Triton X-100, 1 mM PMSF (pH 7.4)] with freshly added protease inhibitor cocktail, Protease Inhibitor Cocktail Set III (Calbiochem, La Jolla, Calif., USA). […] The protein content in the lysates was measured by DC BioRad assay (BioRad Laboratories, Hercules, Calif.) as per the manufacturer's protocol.
For western blot analysis, 40 μg of the protein was resolved over 8-12% polyacrylamide gels and transferred to a nitrocellulose membrane. […] This was followed by incubation with anti-mouse or anti-rabbit secondary antibody horse-radish peroxidase (Amersham Life Sciences, Inc., USA) for 1 h and then washed several times and detected by chemiluminescence ECL kit, (Amersham Life Sciences, Inc., USA) and autoradiography using XAR-5 film obtained from Eastman Kodak Co. (Rochester, N.Y., USA). […]

[2] = system: I-κBα protein and p65-subunit of NFκB in AsPC-1 cells; experiment: Phosphorylation of IκBα and NFκB p65 in AsPC-1 cells; format: cell-based
Excerpt: FIG. 24 depicts effect of Lupeol treatment on the phosphorylation of I-κBα protein and p65-subunit of NFκB transcriptional factor in AsPC-1 cells.

[3] = system: Fas receptor, FADD and other death receptors in LNCaP cells; experiment: Death receptor mediated apoptotic pathway in LNCaP cells (western blot); format: cell-based, human
Method: FIG. 14 depicts effect of Lupeol treatment on death receptor mediated apoptotic pathway in LNCaP cells: Cells were treated with vehicle (DMSO+alcohol) only or specified concentrations of Lupeol for 48 h, harvested and total cell lysates were prepared. The expression of death receptors including Fas and death adaptor proteins including FADD were determined by western blot analysis. Equal loading was confirmed by stripping immunoblots and reprobing them for β-actin. The immunoblots shown here are representative of three independent experiments with similar results.

[4] = system: Ras, PKCα, ODC, pAkt in AsPC-1 cells; experiment: Ras, PKCα, ODC, PI3K, pAkt expression in AsPC-1 cells; format: cell-based
Excerpt: FIG. 23 depicts effect of Lupeol treatment on the expression of Ras, PKCα, ODC, PI3K (P85), pAkt and total Akt, p38 and Erk1/2 proteins in AsPC-1 cells.

[5] = system: mouse ear; details: Nikiema et al., 2001; cited from earlier work
[6] = system: LNCaP cells; experiment: LNCaP viability with anti-Fas mAb alone or combined with Lupeol, MTT assay; format: cell-based, human
Method: FIG. 15 depicts effect of Lupeol treatment in combination with anti-Fas mAb on the growth of LNCaP cells and on the expression of Fas receptor in LNCaP and PrEC cells: (a) Cells were treated with specified concentrations anti-Fas mAb for 48 h and cell viability was determined by MTT assay. The values are represented as the percent viable cells where vehicle-treated cells were regarded as 100% viable. Data represents mean value of percent viable cells±S.E of three independent experiments. V represents control and vehicle (DMSO) treated cells respectively. (b). Cells were treated with specified concentrations of Lupeol alone, anti-Fas mAb or with combination (Lupeol+anti-Fas mAb) for 48 h and cell viability was determined by MTT assay. “a” and “b” represent pre-treatment and co-treatment of cells with anti-Fas mAb respectively. The values are represented as the percent viable cells where vehicle-treated cells were regarded as 100% viable. Data represents mean value of percent viable cells±S.E of three independent experiments.

With `C=C(C)[C@@H]1CC[C@]2(C)CC[C@]3(C)[C@H](CC[C@@H]4[C@@]5(C)CC[C@H](O)C(C)(C)[C@@H]5CC[C@]43C)[C@@H]12` [Lupeol, Lup-20(29)-en-3β-ol] the “TPA-induced phosphorylation of Akt at Thr308” value ([1]; pre-application of Lupeol prior to TPA) was “dose dependent inhibition”, the “total epidermal Akt content” value ([1]; vs vehicle treated control) was “no change was observed” and the “phosphorylation of IkBα” value [2] was “significant reduction”. The “phosphorylation of NFkB” value [2] was “reduction in the phosphorylation of NFkB”, the “expression of cell death-inducing receptor ligands FAS-L, APO-3L and TRAIL” value [3] was “no significant change” and the “expression/activation of other death receptors (TRADD, TNFR-1, APO-3, DR-4/5)” value [3] was “no change in the protein expression; also recorded: No other death receptor such as TNFR1, DR4/5 were activated”. The “expression of FADD protein” value ([3]; 48 h) was “increase in the expression of FADD protein; also recorded: induces the expression”, the “expression of FAS receptor protein” value ([3]; 48 h) was “significant increase; also recorded: induces the expression” and the “expression of Ras protein” value [4] was “decrease”. For the same compound, the “phosphorylation of Akt” value [4] was “reduction in the phosphorylation of Akt”, the “protein expression of ODC” value [4] was “significant reduction” and the “protein expression of PKCa” value [4] was “significant reduction”. For the same compound, the “protection against croton oil induced edema in mouse ear” value [5] was “more efficacy than indomethacin”, the “combination effect of Lupeol with Fas-agonist (anti-Fas mAb) on cell death” value ([6]; LNCaP cells, vs additive effect of the two alone) was “synergistic effect; also recorded: significant synergistic manner” and the “cell death of LNCaP cells” value ([6]; anti-Fas mAb pretreated LNCaP cells treated with Lupeol (30 μg)) was 95-98%.
